Measured values taken from US20090010998A1 (priority 2007, published 2009).

Experiments:
[1] = test system: backs of BALB/c mice; assay: in vivo release test, FD&C dye impregnated dissolvable film on abraded skin; settings: one hour after application; visually noted, estimated
Method: In one test, the backs of BALB/c mice were treated in multiple sites with an abrasive device (FAST™ device, see, for example, United States Publication No. 20040236269, incorporated herein by reference) where a 60 μm abrasive, was applied to the skin with 10-20 grams of force, oscillating at 840 Hz for 2 seconds over a 5×8 mm spot. FD&C dye impregnated dissolvable films were placed over each treatment site with a semi-occlusive covering (patch). The patch was left on for a period of 1-24 hours.

[2] = test system: BALB/c or A/J mice; settings: mouse, in vivo

Row | Compound | presence of dye on the mouse skin [1] | effect of adjuvant/preservative on antibody titer [2] | effect of adjuvant/preservative on efficiency of TCI [2]
1 | FD&C No. 1 dye | > 75% |  | 
2 | C=O [formalin] |  | higher titer antibody response | did not show a statistically significant difference
3 | alum |  | higher titer antibody response | 
